We go through 22 compounds from PubChem BioAssay AID256 (DTP/NCI, 2004).

Structures are written as SMILES. Several values for one entry are separate records, joined by “and”; a condition that tells them apart may be missing. Equal entries are not always repeated. Toxic doses and inconclusive results are not listed.

The subject of the experiment is CD2F1 mice, L1210 leukemia ip, survival T/C. Briefly: NCI In Vivo Anticancer Drug Screen. Data for tumor model L1210 Leukemia (intraperitoneal) in CD2F1 (CDF1) mice. To be noted: higher = longer survival. Summed up:
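Ratio T/C, where T is the treated-group value and C the vehicle-dosed control value, from mice implanted with a transplantable tumor.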

Setting [1] is: endpoint: mean survival time, dose: 50.0 mg/kg/injection, schedule: Q01DX009 (ip), vehicle: saline with Tween-80.
[2] abbreviates: endpoint: mean survival time, dose: 200.0 mg/kg/injection, schedule: Q01DX009 (ip), vehicle: saline with Tween-80.
Setting [3] is: endpoint: mean survival time, dose: 200.0 mg/kg/injection, schedule: Q04DX003 (ip), vehicle: saline with Tween-80.
Where [4] appears, read: endpoint: mean survival time, dose: 400.0 mg/kg/injection, schedule: Q04DX003 (ip), vehicle: saline with Tween-80.
[5] abbreviates: endpoint: mean survival time, dose: 75.0 mg/kg/injection, schedule: Q01DX001 (ip), vehicle: saline.
The mark [6] stands for this setting: endpoint: mean survival time, dose: 100.0 mg/kg/injection, schedule: Q04DX003 (ip), vehicle: saline with Tween-80.
Setting [7] is: endpoint: mean survival time, dose: 5.0 mg/kg/injection, schedule: Q01DX009 (ip), vehicle: saline with Tween-80.
[8] abbreviates: endpoint: mean survival time, dose: 10.0 mg/kg/injection, schedule: Q01DX009 (ip), vehicle: saline with Tween-80.
The mark [9] stands for this setting: endpoint: mean survival time, dose: 20.0 mg/kg/injection, schedule: Q01DX009 (ip), vehicle: saline with Tween-80.
Setting [10] is: endpoint: mean survival time, dose: 100.0 mg/kg/injection, schedule: Q01DX009 (ip), vehicle: saline with Tween-80.
Where [11] appears, read: endpoint: mean survival time, dose: 400.0 mg/kg/injection, schedule: Q01DX009 (ip), vehicle: saline with Tween-80.
The mark [12] stands for this setting: endpoint: mean survival time, dose: 100.0 mg/kg/injection, schedule: Q01DX001 (ip), vehicle: saline with Tween-80.
The mark [13] stands for this setting: endpoint: mean survival time, dose: 200.0 mg/kg/injection, schedule: Q01DX001 (ip), vehicle: saline with Tween-80.
[14] abbreviates: endpoint: mean survival time, dose: 100.0 mg/kg/injection, schedule: Q01DX009 (ip), vehicle: saline.
Setting [15] is: endpoint: mean survival time, dose: 200.0 mg/kg/injection, schedule: Q01DX009 (ip), vehicle: saline.
The mark [16] stands for this setting: endpoint: mean survival time, dose: 400.0 mg/kg/injection, schedule: Q01DX009 (ip), vehicle: saline.

On to `NC(=O)N/N=C/c1cccs1`, for which the T/C is 89 % of control under setting [1], 97 % of control under setting [2], 87 % of control under setting [3] and 91 % of control under setting [4].
Take `CCOC(N)=O`: the T/C (endpoint: mean survival time, dose: 125.0 mg/kg/injection, schedule: Q01DX009 (ip), vehicle: saline) was 98 % of control and 101 % of control; the T/C (endpoint: mean survival time, dose: 250.0 mg/kg/injection, schedule: Q01DX009 (ip), vehicle: saline) is 104 % of control and 109 % of control; the T/C (endpoint: mean survival time, dose: 500.0 mg/kg/injection, schedule: Q01DX009 (ip), vehicle: saline) was 116 % of control and 101 % of control; the T/C (endpoint: mean survival time, dose: 1000.0 mg/kg/injection, schedule: Q01DX009 (ip), vehicle: saline) was 89 % of control and 105 % of control.
Turning to `CN(C)[C-]=O.[C-]#[O+].[C-]#[O+].[Fe+6].[c-]1[c-][c-][cH-][c-]1`, the T/C (endpoint: mean survival time, dose: 75.0 mg/kg/injection, schedule: Q01DX001 (ip), vehicle: other) was 94 % of control and the T/C (endpoint: mean survival time, dose: 150.0 mg/kg/injection, schedule: Q01DX001 (ip), vehicle: other) is 88 % of control.
As for `CCCCC(=O)C(=O)OC(OC(=O)C(=O)CCCC)c1ccccc1`, the T/C runs as follows: under setting [5], 93 % of control; (endpoint: mean survival time, dose: 150.0 mg/kg/injection, schedule: Q01DX001 (ip), vehicle: saline) 97 % of control.
As for `COC(=O)C(Cc1cnc[nH]1)NC(=O)c1ccccc1` (centres undefined), the T/C by setting is: under setting [6], 103 % of control; under setting [3], 104 % of control; under setting [4], 97 % of control.
As for `NC(=O)OCC#CCN1CCCC1`, the T/C is, setting by setting: under setting [7], 102 % of control; under setting [8], 103 % of control; under setting [9], 100 % of control.
Regarding `CSc1ccc(NC(C)=O)cc1`, the T/C is 94 % of control (endpoint: mean survival time, dose: 100.0 mg/kg/injection, schedule: Q01DX001 (ip), vehicle: Klucel (hydroxypropylcellulose) (HPC)); 96 % of control (endpoint: mean survival time, dose: 200.0 mg/kg/injection, schedule: Q01DX001 (ip), vehicle: Klucel (hydroxypropylcellulose) (HPC)); 96 % of control (endpoint: mean survival time, dose: 400.0 mg/kg/injection, schedule: Q01DX001 (ip), vehicle: Klucel (hydroxypropylcellulose) (HPC)).
As for `CC(C)(CC(=O)Nc1ccccc1)C(=O)O`, the T/C by setting is: under setting [10], 98 % of control and 100 % of control; under setting [2], 96 % of control and 100 % of control; under setting [11], 96 % of control and 102 % of control.
Consider `CC(=O)CS(=O)(=O)CC(N)=O`, for which the T/C by setting is: (endpoint: mean survival time, dose: 100.0 mg/kg/injection, schedule: Q01DX001 (ip), vehicle: saline sonified) 96 % of control; (endpoint: mean survival time, dose: 200.0 mg/kg/injection, schedule: Q01DX001 (ip), vehicle: saline sonified) 96 % of control; (endpoint: mean survival time, dose: 400.0 mg/kg/injection, schedule: Q01DX001 (ip), vehicle: saline sonified) 97 % of control.
For `O=C(O)c1cc(Cl)c(Cl)cn1`, the T/C (endpoint: mean survival time, dose: 50.0 mg/kg/injection, schedule: Q01DX001 (ip), vehicle: saline with Tween-80) is 97 % of control; the T/C under setting [12] is 98 % of control; the T/C under setting [13] was 103 % of control.
Turning to `Oc1ccccc1/C=N\Nc1ccccc1`, the T/C under setting [14] was 98 % of control, the T/C under setting [15] is 98 % of control and the T/C under setting [16] is 102 % of control.
`Cn1cc[n+](C)c1C(c1ccccc1)N1CCCCC1` (centres undefined): the T/C was 106 % of control (endpoint: mean survival time, dose: 5.0 mg/kg/injection, schedule: Q01DX001 (ip), vehicle: saline with Tween-80); 94 % of control under setting [7]; 96 % of control (endpoint: mean survival time, dose: 10.0 mg/kg/injection, schedule: Q01DX001 (ip), vehicle: saline with Tween-80); 100 % of control under setting [8]; 102 % of control (endpoint: mean survival time, dose: 20.0 mg/kg/injection, schedule: Q01DX001 (ip), vehicle: saline with Tween-80); 98 % of control under setting [9].
`Nc1nc(N)c(N=Nc2ccc(SCC(=O)O)cc2)c(=O)[nH]1`: the T/C is 100 % of control under setting [10], 94 % of control under setting [2] and 101 % of control under setting [11].
In the case of `CC(=O)OCC1OC(n2ccc(O)cc2=O)C(O)C1O` (centres undefined), the T/C is, setting by setting: (endpoint: median survival time, dose: 44.0 mg/kg/injection, schedule: Q01DX009 (ip), vehicle: saline + alcohol) 160 % of control; (endpoint: median survival time, dose: 67.0 mg/kg/injection, schedule: Q01DX009 (ip), vehicle: saline + alcohol) 169 % of control; (endpoint: median survival time, dose: 100.0 mg/kg/injection, schedule: Q01DX009 (ip), vehicle: saline + alcohol) 172 % of control; (endpoint: median survival time, dose: 150.0 mg/kg/injection, schedule: Q01DX009 (ip), vehicle: saline + alcohol) 174 % of control.
Consider `CON(C)N=Nc1ccc(C(N)=O)cc1`, for which the T/C is, setting by setting: (endpoint: mean survival time, dose: 4.68 mg/kg/injection, schedule: Q01DX009 (ip), vehicle: Klucel (hydroxypropylcellulose) (HPC)) 96 % of control and 110 % of control; (endpoint: mean survival time, dose: 9.37 mg/kg/injection, schedule: Q01DX009 (ip), vehicle: Klucel (hydroxypropylcellulose) (HPC)) 87 % of control and 109 % of control; (endpoint: mean survival time, dose: 18.75 mg/kg/injection, schedule: Q01DX009 (ip), vehicle: Klucel (hydroxypropylcellulose) (HPC)) 96 % of control and 101 % of control; (endpoint: mean survival time, dose: 37.5 mg/kg/injection, schedule: Q01DX009 (ip), vehicle: Klucel (hydroxypropylcellulose) (HPC)) 98 % of control and 104 % of control; (endpoint: mean survival time, dose: 75.0 mg/kg/injection, schedule: Q01DX009 (ip), vehicle: Klucel (hydroxypropylcellulose) (HPC)) 100 % of control and 103 % of control; (endpoint: mean survival time, dose: 150.0 mg/kg/injection, schedule: Q01DX009 (ip), vehicle: Klucel (hydroxypropylcellulose) (HPC)) 114 % of control and 103 % of control. Besides, the T/C (endpoint: mean survival time, dose: 300.0 mg/kg/injection, schedule: Q01DX009 (ip), vehicle: Klucel (hydroxypropylcellulose) (HPC)) was 114 % of control.
With `O=C(O)C1CCN1C1CCCCC1` (centres undefined), the T/C runs as follows: under setting [14], 98 % of control; under setting [6], 103 % of control; under setting [15], 100 % of control; under setting [3], 103 % of control; under setting [16], 98 % of control; under setting [4], 100 % of control.
`COc1ccc(C(=O)O)c([N+](=O)[O-])c1`: the T/C reads like this: under setting [6], 98 % of control; under setting [3], 98 % of control; under setting [4], 98 % of control.
For the compound `CN(C)/C=C/C#N`, the T/C under setting [5] was 102 % of control.
On to `Cc1noc(N)c1C`, for which the T/C under setting [1] is 92 % of control, the T/C under setting [10] is 95 % of control and the T/C under setting [2] is 92 % of control.
Consider `Clc1ccc(N=Cc2ccccc2Cl)cc1`, for which the T/C reads like this: under setting [6], 107 % of control; under setting [3], 113 % of control; under setting [4], 100 % of control.
For the compound `O=C(O/N=C(\C(=O)c1ccccc1)c1ccccc1)c1ccc(Br)cc1`, the T/C was 90 % of control under setting [12] and 90 % of control under setting [13].
As for `CCOC(=O)c1cnc2c(ccc3ncccc32)c1NCCCN(CC)CC`, the T/C by setting is: (endpoint: mean survival time, dose: 12.5 mg/kg/injection, schedule: Q01DX009 (ip), vehicle: Klucel (hydroxypropylcellulose) (HPC)) 93 % of control; (endpoint: mean survival time, dose: 25.0 mg/kg/injection, schedule: Q01DX009 (ip), vehicle: Klucel (hydroxypropylcellulose) (HPC)) 97 % of control; (endpoint: mean survival time, dose: 50.0 mg/kg/injection, schedule: Q01DX009 (ip), vehicle: Klucel (hydroxypropylcellulose) (HPC)) 97 % of control.
